{
  "source": "patent EP0363829A2",
  "about": "“Predicting sensitivity to injectable radio contrast media with histamine release test” (MILES INC., priority 1988, dated 1990)",
  "key": {"[1]": {"test_system": "basophils", "assay_type": "cell-based, patients", "description": "In the first step a histamine-protein conjugate is adsorbed to 94 polystyrene pegs simultaneously. This is accomplished by submerging the pegs into wells of a 96 well microtiter plate (referred to as the adsorption plate) that contain a solution of a histamine-BSA conjugate. Two microtiter wells contain only BSA and are used as negative controls. Following a one hour incubation period at room temperature, the pegs are removed and washed to remove non-adsorbed conjugate.\nA second 96 well microtiter plate (referred to as the release plate) containing various dilutions of RCM or histamine is also prepared. […]\nThe relative concentration of the monoclonal antibody-horseradish peroxidase conjugate bound to the histamine-BSA conjugate on the polystyrene pegs is now estimated by immersing the pegs in a third microtiter plate (referred to as the chromogen plate) containing a chromogenic substrate for horseradish peroxidase, 2, 2′-azino-di-(3-ethyl-benzothiazoline)-6-sulfonic acid (ABTS®). […] Quantitative assessment of histamine release can be made if a Microtiter ELISA Reader is available. […]\nThe radio contrast media (RCM) to be tested as the allergen was diluted into 8 to 9 serial dilutions using Tris ACM or distilled water as diluent. […] The release plate was then ready for use. […]"}, "[2]": {"design": "species or system patients", "conditions": "human, in vivo", "description": "A clinical study was performed to test the hypothesis that sensitivity (allergy) to radio contrast media could be predicted by the results of the histamine release test described herein. Histamine release from a blood sample from patients who would later be tested with a radio contrast media was measured. The results were later compared with the occurrence of an allergic reaction to the administration of the radio contrast media."}},
  "data": [
    {"smiles": "CC(=O)Nc1c(I)c(NC(C)=O)c(I)c(C(=O)O)c1I", "note": "[Hypaque]", "values": [
      {"measurement": "degree of histamine release", "setting": "[1]", "result": "highest degree of histamine release"},
      {"measurement": "histamine release", "setting": "[1]", "result": "significantly more histamine release"},
      {"measurement": "patients with an allergic reaction to the injection of the radio contrast media", "setting": "[2]", "result": "one"}
    ]}
  ]
}
